Legend:
[1] = target: T1, bovine pancreatic trypsin (TRY) (Bos taurus, UniProt P00760); test: TRY inhibitory activity; type: biochemical; conditions: TRY 25 nM, substrate 1.0 mM, pH 7.5
T1 construct: purchased Sigma Inc; host or cells: bovine pancreas (by its name)
T1 sequence (P00760 24-246): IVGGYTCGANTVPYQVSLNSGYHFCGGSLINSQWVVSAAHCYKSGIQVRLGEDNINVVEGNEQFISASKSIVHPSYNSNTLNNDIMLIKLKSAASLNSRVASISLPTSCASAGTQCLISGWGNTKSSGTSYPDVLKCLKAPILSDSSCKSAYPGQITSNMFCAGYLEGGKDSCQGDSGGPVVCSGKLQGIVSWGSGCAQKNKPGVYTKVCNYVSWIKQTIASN
Experimental: Inhibotory activities of the oxadinone derivative of the present invention against human leukocyte elastase (HLE), human sputum elastase (HSE), human cathepsin G (HCG), bovine pancreatic α-chymotrypsin (CYT) and bovine pancreatic trypsin (TRY) were measured as follows:
(5) Measurement of TRY Inhibitory Activity
a) Enzyme Preparing Method Bought from Sigma Inc.
Employed was a measuring method similar to that described previously in conjunction with the measurement of the HLE inhibiting activity, except that used was a buffer solution of pH 7.5. The final concentrations of TRY and the synthetic substrate (Z-Arg-pNA; FUNAKOSHI) in the solution of the enzyme reaction were 25 nM and 1.0 mM, respectively.

[2] = system: neutrophil infiltration into carrageenin-induced air pouch inflammation; test: Suppressing neutrophil infiltration into carrageenin-induced air pouch inflammation; type: in vivo, SD series male rats; conditions: 17 μmol into air pouch, 5 hours; for Cell Infiltration Capability: control = 100
Experimental: Test: 3 Effect of the Invented Compound for Suppressing Neutrophil Infiltration into carrageenin-induced Air Pouch Inflammation
Groups of SD series male rats (5 five weeks old and each weighing 110 to 130 g) were used in this experiment, each group consisting of five rats. In the first step, an air bladder was formed on the back of the rat by hypodermic injection of 8 ml of air while anesthetizing the rat with either. Twenty-four hours later, 5 ml of a physiological saline containing 1% of carrageenin manufactured by Wako K.K. was injected into the air pouch. Promptly after the carrageenin injection, a solution prepared by dissolving the test material (compound of the present invention) in 200 μl of DMSO (dimethylsulfoxide) was administered to the air pouch on the back of the rat.
Five hours later, the rat was killed and the blood was released therefrom. Then, 5 ml of PBS containing 10 mM of EDTA (ethylenediamine tetraacetate) was injected into the air pouch. The exudate within the air bladder was washed and, then, recovered. A predetermined amount of the recovered exudate was measured by a colter counter so as to count the number of infiltrated cells.
The effect of the test material for suppressing the cell infiltration into the carrageenin induced inflammation was determined by the formula given below, in which the value obtained by subtracting the number of infiltrated cells in the experiment in which carrageenin was not administered from the number of infiltrated cells in the reference group in which a medicine was not administered was set at 100:
= 100 - (U - V)/(W - V) × 100
S: Cell infiltration capability in the case of containing the compound of the present invention;
T: Cell infiltration capability in the case of not containing the compound of the present invention;
U: The number of infiltrated cells in the case of administering the compound of the present invention and carrageenin;
V: The number of infiltrated cells in the case of not adding carrageenin; and
W: The number of infiltrated cells in the case of administering carrageenin only.

human neutrophils = test: Activity for suppressing chemotaxis of human neutrophils (fMLP); type: cell-based; conditions: Neutrophil, 1 h, one hour
Experimental: Test 2: Activity of the Invented Compound for Suppressing Chemotaxis of Human Neutrophils
A neutrophil fraction (60% percoal fraction having neutrophil purity of at least 90%) was obtained from a human peripheral blood by a percoal density gradient centrifugal separation (2300 rpm, 20 minutes).
1300 μl of a culture medium containing 10^-7 M of fMLP (formylmethionyloycyl-phenylalanine), which is a neutrophil chemotaxis factor, was added in advance to each well of a chemotaxis chamber (KURABO). An inter cell having pores 5 μm in diameter and containing 8×10^5 neutrophils and the compound of the present invention adjusted at a desired concentration was disposed in the chemotaxis chamber. After culturing for one hour at 37° C. within a culturing device containing 5% of carbon dioxide gas, the number of cells migrated from the upper side of inter cell membrane into the lower side of the membrane in the chamber was counted by the method described in the following. Specifically, the lower side surface of the inter cell membrane was washed 4 times with PBS. After fixing the washed surface with methanol, the cells were dyed with hematoxylin-eosine solution. Then, the membrane was removed from the inter cell and put on a sliding glass for air-drying, followed by sealing with Canada balsam. Under this condition, five areas selected at random of the membrane were microscopically observed so as to count the number of cells. An average of the number of cells within the five areas was calculated so as to determine the number of migrated cells.
The function of the invented compound for suppressing chemotaxis was determined by the formula given below, in which the value obtained by subtracting the number of migrating cells in the reference experiment in which fMLP was not added from the number of migrating cells in the experiment in which the compound of the present invention was not added was set at 100:
= 100 - (C - D)/(E - D) × 100
A: Chemotaxis in the case of containing the compound of the present invention;
B: Chemotaxis in the case of not containing the compound of the present invention;
C: The number of migrating cells in the case of adding the compound of the present invention, fMLP;
D: The number of migrating cells in the case of not adding fMLP; and
E: The number of migrating cells in the case of adding only fMLP.

Structure (SMILES): Cc1cccc2nc([C@H](CC(C)C)NC(=O)OCC3c4ccccc4-c4ccccc43)oc(=O)c12 [Compound 2, 2-{1(S)-[(9-fluorenylmethoxycarbonyl)amino]-3-methylbutyl}-5-methyl-4H-3,1-benzoxazin-4-one]
- IC50 [1]: > 6.68 µM
- Rate (%) of Suppressing Cell Infiltration [2]: 24%
- Cell Infiltration Capability [2]: 76

Structure (SMILES): Cc1cccc2nc([C@@H](NC(=O)OCC3c4ccccc4-c4ccccc43)C(C)C)oc(=O)c12 [Compound 1, 2-{1(S)-[(9-fluorenylmethoxycarbonyl)amino]-2-methylpropyl}-5-methyl-4H-3,1-benzoxazin-4-one]
- IC50 [1]: > 6.89 µM
- inhibition at 50 µM (human neutrophils; concentration 50 (μm), fMLP 10^-7 M): 89%
- activity at 50 µM (human neutrophils; concentration 50 (μm), without compound = 100, fMLP 10^-7 M): 11%
- inhibition at 100 µM (human neutrophils; concentration 100 (μm), fMLP 10^-7 M): 99%
- activity at 100 µM (human neutrophils; concentration 100 (μm), without compound = 100, fMLP 10^-7 M): 1%
- Rate (%) of Suppressing Cell Infiltration [2]: 38%
- Cell Infiltration Capability [2]: 62
